Source: ChEMBL document CHEMBL1126135, “N-(1-oxododecyl)-4 alpha,10-dimethyl-8-aza-trans-decal-3 beta-ol: a potent competitive inhibitor of 2,3-oxidosqualene cyclase” (J Med Chem, 1992)

target: T1, Lanosterol synthase (Rattus norvegicus, UniProt P48450); experiment: Inhibitory activity against Oxidosqualene-lanosterol cyclase enzyme obtained from rat liver; d = in a microsomal assay fails to inhibit OSC (Oxidosqualene cyclase); assay type: microsomes, Microsome; settings: not given
T1 sequence (P48450 whole entry): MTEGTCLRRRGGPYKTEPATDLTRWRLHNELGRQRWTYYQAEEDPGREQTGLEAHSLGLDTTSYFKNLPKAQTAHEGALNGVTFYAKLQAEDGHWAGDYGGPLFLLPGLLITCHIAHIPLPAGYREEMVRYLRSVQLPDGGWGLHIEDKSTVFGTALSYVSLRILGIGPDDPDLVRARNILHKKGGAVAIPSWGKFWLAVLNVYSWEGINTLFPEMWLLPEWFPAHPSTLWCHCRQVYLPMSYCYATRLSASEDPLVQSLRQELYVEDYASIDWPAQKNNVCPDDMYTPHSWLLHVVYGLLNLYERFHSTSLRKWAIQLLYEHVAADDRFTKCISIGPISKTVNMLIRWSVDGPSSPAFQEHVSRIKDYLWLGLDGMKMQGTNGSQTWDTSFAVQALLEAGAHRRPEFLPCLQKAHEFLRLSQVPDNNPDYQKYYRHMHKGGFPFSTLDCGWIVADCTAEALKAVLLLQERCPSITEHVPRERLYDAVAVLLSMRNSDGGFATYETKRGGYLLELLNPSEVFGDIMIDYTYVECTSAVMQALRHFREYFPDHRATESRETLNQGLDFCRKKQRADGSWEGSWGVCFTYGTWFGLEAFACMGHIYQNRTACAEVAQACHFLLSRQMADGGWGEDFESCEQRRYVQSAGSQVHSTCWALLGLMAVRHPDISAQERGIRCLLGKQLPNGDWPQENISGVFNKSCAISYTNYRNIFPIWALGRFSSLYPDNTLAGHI

With `C[C@@H]1[C@@H](O)CC[C@]2(C)CNCC[C@@H]12` the IC50 was “No inhibition”.

tested on: HepG2; experiment: Compound was tested for inhibition of cholesterol biosynthesis in HepG2 cells from [14C]- acetate; assay type: functional, cell-based; settings: Homo sapiens

Compared with `CCCCCCCCCCCC[S+]([O-])N1CC[C@H]2[C@H](C)[C@@H](O)CC[C@]2(C)C1` (stereo not given in full), `CCCCCCCCCCCCN1CC[C@H]2[C@H](C)[C@@H](O)CC[C@]2(C)C1` is 280-fold lower in IC50: 2800 nM for the first, 10 nM for the second.

Going from `CC(=O)N1CC[C@H]2[C@H](C)[C@@H](O)CC[C@]2(C)C1` to `C[C@@H]1[C@@H](O)CC[C@]2(C)CNCC[C@@H]12`, the IC50 falls from greater than 100000 nM to 19000 nM.

First: CCCCCCCCCCCCS(=O)(=O)N1CC[C@H]2[C@H](C)[C@@H](O)CC[C@]2(C)C1
Second: CCCCCCCCCCCC(=O)N1CC[C@H]2[C@H](C)[C@@H](O)CC[C@]2(C)C1
The IC50 of the first is 74-fold higher: 52000 nM for the first, 700 nM for the second.

First: CC1(C)[C@@H](O)CC[C@]2(C)CCCC[C@@H]12
Second: CC(C)CCCC(C)CCCC(C)N1CC[C@H]2[C@H](C)[C@@H](O)CC[C@]2(C)C1 (stereo not given in full)
The IC50 of the first is 400-fold higher: 28000 nM for the first, 70 nM for the second.

`CCCCCCCCCCCC(=S)N1CC[C@H]2[C@H](C)[C@@H](O)CC[C@]2(C)C1` was tested, and the IC50 was 2000 nM.
